Laboratory results as given in ChEMBL document CHEMBL1201862, “PubChem BioAssay data set” (2004).
Activity calls are given as the source filed them.

Experiments:
Format in all cases: functional
[1] = biological target: cAMP-dependent protein kinase catalytic subunit alpha (Homo sapiens, UniProt P17612)
[2] = biological target: Serine/threonine-protein kinase pim-1 (Homo sapiens, UniProt P11309)
[3] = biological target: Tyrosine-protein kinase Fyn (Homo sapiens, UniProt P06241)
[4] = biological target: Tyrosine-protein kinase ABL1 (Homo sapiens, UniProt P00519)
[5] = biological target: Serine/threonine-protein kinase Chk1 (Homo sapiens, UniProt O14757);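 note: measured as one member of a kinome-wide kinase profiling panel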
LIM domain kinase 1 = LIM domain kinase 1 (Homo sapiens, UniProt P53667); assay: Navigating the Kinome. Panel member name: LIMK1
[6] = biological target: Vascular endothelial growth factor receptor 2 (Homo sapiens, UniProt P35968)
[7] = biological target: ALK tyrosine kinase receptor (Homo sapiens, UniProt Q9UM73);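 note: ALK tested as one member of a kinase panel screen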
[8] = biological target: Tyrosine-protein kinase Lck (Homo sapiens, UniProt P06239);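 note: lck was assayed as one member of a kinase panel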
[9] = biological target: Cyclin-dependent kinase 5 (Homo sapiens, UniProt Q00535);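 note: CDK5 measured as one member of a kinase profiling panel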
[10] = biological target: Dual specificity protein kinase CLK4 (Homo sapiens, UniProt Q9HAZ1)
[11] = biological target: Protein kinase C theta type (Homo sapiens, UniProt Q04759); assay: Navigating the Kinome. Panel member name: PRKCQ
[12] = biological target: Mitogen-activated protein kinase kinase kinase kinase 2 (Homo sapiens, UniProt Q12851);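 note: measured as one member of a kinome-wide kinase panel, with MAP4K2 as the panel entry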
[13] = biological target: Leukocyte tyrosine kinase receptor (Homo sapiens, UniProt P29376); assay: Navigating the Kinome. Panel member name: LTK
[14] = biological target: Fibroblast growth factor receptor 1 (Homo sapiens, UniProt P11362)
Activin receptor type-1 = Activin receptor type-1 (Homo sapiens, UniProt Q04771); assay: Navigating the Kinome. Panel member name: ACVR1
[15] = biological target: Cyclin-dependent kinase 8 (Homo sapiens, UniProt P49336); assay: Navigating the Kinome. Panel member name: CDK8
[16] = biological target: Cyclin-dependent kinase 9 (Homo sapiens, UniProt P50750);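 note: value from the CDK9 entry of a kinome-spanning kinase panel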
[17] = biological target: Macrophage-stimulating protein receptor (Homo sapiens, UniProt Q04912); assay: Navigating the Kinome. Panel member name: MST1R
[18] = biological target: Receptor-type tyrosine-protein kinase FLT3 (Homo sapiens, UniProt P36888);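 note: FLT3 was tested as one member of a kinome-wide kinase panel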
Aurora kinase B = Aurora kinase B (Homo sapiens, UniProt Q96GD4)
[19] = biological target: Leucine-rich repeat serine/threonine-protein kinase 2 (Homo sapiens, UniProt Q5S007);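 note: value from a broad kinome-wide panel profiling study in which LRRK2 was one of the kinases tested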
[20] = biological target: Mitogen-activated protein kinase 8 (Homo sapiens, UniProt P45983);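 note: value comes from one member of a kinome-wide kinase profiling panel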
[21] = biological target: Macrophage colony-stimulating factor 1 receptor (Homo sapiens, UniProt P07333);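 note: value comes from the Navigating the Kinome screening panel, CSF1R member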
Aurora kinase A = biological target: T1, Aurora kinase A (Homo sapiens, UniProt O14965);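 note: value from the Navigating the Kinome kinase panel profiling, panel entry STK6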
T1 sequence (O14965 whole entry): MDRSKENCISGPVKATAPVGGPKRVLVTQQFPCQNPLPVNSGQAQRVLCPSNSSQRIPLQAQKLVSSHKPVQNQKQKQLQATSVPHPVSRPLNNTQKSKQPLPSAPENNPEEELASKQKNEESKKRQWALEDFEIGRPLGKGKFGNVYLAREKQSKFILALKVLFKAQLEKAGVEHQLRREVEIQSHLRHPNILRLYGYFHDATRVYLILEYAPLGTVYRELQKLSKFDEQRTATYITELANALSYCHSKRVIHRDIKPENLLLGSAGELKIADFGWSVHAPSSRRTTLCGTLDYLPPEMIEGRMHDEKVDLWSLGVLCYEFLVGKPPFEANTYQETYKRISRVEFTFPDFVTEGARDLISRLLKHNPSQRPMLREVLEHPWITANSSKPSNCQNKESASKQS

[22] = biological target: Dual specificity tyrosine-phosphorylation-regulated kinase 1A (Homo sapiens, UniProt Q13627);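 note: measured against DYRK1A as one member of a broad kinome profiling panel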
[23] = biological target: Glycogen synthase kinase-3 beta (Homo sapiens, UniProt P49841);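 note: value comes from a broad kinome profiling panel, with GSK3B as the panel member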
[24] = biological target: Dual specificity tyrosine-phosphorylation-regulated kinase 1B (Homo sapiens, UniProt Q9Y463); assay: Navigating the Kinome. Panel member name: DYRK1B
[25] = biological target: Mitogen-activated protein kinase kinase kinase kinase 4 (Homo sapiens, UniProt O95819)
[26] = biological target: Dual specificity mitogen-activated protein kinase kinase 1 (Homo sapiens, UniProt Q02750); assay: Navigating the Kinome. Panel member name: MAP2K1
[27] = biological target: Rho-associated protein kinase 1 (Homo sapiens, UniProt Q13464);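 note: measured within a broad kinome-wide panel profiling many kinases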
[28] = biological target: Cyclin-dependent kinase 7 (Homo sapiens, UniProt P50613);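 note: value comes from a kinome-wide kinase profiling panel in which CDK7 is one member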
[29] = biological target: Hepatocyte growth factor receptor (Homo sapiens, UniProt P08581);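 note: kinase panel profiling across the kinome, with MET as the panel member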
[30] = biological target: Casein kinase I isoform alpha (Homo sapiens, UniProt P48729)
[31] = biological target: Platelet-derived growth factor receptor alpha (Homo sapiens, UniProt P16234); assay: Navigating the Kinome. Panel member name: PDGFRA
[32] = biological target: Tyrosine-protein kinase receptor TYRO3 (Homo sapiens, UniProt Q06418);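 note: TYRO3 value obtained as one member of a kinome-wide profiling panel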

Chain of Casein kinase I isoform alpha (P48729 whole entry, canonical isoform): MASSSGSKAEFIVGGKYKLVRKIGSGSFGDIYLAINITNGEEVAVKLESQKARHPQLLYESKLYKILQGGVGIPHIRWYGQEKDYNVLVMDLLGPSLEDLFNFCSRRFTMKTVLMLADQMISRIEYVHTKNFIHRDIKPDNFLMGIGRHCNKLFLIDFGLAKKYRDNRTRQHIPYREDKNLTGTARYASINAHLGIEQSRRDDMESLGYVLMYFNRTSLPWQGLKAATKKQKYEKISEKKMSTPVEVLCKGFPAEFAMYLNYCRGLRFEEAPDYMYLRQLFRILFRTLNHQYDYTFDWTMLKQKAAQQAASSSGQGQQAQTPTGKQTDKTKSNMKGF
Chain of Cyclin-dependent kinase 8 (P49336 whole entry): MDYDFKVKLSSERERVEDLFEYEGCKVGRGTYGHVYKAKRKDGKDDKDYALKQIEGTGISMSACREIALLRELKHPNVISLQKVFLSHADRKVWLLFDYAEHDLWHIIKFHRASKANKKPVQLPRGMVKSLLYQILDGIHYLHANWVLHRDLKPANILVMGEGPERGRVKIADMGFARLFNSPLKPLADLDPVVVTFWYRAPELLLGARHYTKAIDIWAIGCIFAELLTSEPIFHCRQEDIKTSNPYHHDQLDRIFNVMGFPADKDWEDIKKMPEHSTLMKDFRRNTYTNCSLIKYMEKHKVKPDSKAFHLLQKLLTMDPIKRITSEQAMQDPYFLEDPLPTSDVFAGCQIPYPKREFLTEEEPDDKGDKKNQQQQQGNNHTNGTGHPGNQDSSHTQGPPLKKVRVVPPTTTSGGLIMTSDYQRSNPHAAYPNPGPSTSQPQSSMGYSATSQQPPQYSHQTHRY
Chain of Fibroblast growth factor receptor 1 (P11362 whole entry): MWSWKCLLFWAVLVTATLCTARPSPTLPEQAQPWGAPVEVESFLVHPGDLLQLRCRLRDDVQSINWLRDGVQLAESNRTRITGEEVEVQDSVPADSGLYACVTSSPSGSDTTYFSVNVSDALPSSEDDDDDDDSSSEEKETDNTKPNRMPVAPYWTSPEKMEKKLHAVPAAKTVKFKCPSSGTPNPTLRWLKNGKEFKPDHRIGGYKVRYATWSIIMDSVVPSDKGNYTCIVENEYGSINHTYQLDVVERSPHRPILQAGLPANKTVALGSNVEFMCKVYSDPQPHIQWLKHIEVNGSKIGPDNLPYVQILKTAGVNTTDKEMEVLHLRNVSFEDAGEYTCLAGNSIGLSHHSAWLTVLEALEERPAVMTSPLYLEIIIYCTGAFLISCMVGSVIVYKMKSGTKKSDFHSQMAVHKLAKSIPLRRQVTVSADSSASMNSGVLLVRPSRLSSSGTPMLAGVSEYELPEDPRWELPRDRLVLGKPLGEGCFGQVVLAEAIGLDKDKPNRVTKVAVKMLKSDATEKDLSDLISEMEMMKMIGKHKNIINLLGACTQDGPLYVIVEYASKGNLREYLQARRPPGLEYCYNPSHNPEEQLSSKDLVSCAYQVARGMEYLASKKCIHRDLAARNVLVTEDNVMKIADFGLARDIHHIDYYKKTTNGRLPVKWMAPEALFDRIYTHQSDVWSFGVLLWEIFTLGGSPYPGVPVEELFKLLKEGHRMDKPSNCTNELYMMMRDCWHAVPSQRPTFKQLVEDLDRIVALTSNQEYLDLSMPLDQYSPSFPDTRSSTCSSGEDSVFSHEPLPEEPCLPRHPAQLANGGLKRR
Chain of Leukocyte tyrosine kinase receptor (P29376 whole entry): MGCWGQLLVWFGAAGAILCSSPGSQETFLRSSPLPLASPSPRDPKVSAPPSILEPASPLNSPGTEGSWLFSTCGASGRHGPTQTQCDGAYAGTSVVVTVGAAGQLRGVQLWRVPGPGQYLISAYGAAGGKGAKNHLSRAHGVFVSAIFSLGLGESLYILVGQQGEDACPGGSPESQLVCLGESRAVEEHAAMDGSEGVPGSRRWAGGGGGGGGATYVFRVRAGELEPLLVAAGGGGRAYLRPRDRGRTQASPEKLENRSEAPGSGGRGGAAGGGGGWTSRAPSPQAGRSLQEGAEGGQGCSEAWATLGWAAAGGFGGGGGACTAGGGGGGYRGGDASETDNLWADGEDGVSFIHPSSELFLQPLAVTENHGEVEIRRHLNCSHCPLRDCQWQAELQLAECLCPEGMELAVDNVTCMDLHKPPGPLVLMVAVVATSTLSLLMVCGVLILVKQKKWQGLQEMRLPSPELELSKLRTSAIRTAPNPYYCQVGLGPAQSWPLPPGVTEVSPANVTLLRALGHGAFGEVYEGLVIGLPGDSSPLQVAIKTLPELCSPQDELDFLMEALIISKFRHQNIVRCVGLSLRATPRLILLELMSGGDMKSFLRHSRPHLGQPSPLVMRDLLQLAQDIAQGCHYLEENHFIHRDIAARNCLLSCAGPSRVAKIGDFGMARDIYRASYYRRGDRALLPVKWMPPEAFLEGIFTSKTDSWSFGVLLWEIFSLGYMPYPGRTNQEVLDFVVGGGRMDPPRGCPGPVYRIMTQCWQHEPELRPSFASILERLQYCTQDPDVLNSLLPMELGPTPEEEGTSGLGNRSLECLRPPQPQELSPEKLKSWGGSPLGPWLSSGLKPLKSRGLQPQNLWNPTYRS
Chain of Dual specificity tyrosine-phosphorylation-regulated kinase 1B (Q9Y463 whole entry): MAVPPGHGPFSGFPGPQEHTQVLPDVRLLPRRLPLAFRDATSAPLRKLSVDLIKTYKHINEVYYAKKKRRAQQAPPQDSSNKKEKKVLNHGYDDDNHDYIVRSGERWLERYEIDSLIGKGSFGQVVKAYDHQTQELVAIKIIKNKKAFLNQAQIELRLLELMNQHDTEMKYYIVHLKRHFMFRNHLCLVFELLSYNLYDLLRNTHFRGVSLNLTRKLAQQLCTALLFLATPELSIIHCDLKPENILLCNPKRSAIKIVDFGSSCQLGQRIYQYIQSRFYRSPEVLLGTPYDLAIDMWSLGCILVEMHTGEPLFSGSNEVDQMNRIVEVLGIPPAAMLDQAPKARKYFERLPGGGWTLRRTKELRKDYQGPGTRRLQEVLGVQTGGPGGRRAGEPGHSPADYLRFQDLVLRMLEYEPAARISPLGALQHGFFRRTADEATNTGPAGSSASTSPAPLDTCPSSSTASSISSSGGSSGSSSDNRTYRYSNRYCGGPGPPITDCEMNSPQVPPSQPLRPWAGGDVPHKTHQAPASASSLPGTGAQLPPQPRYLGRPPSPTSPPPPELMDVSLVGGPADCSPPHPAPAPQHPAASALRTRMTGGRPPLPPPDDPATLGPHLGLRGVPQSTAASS
Chain of Tyrosine-protein kinase Lck (P06239 whole entry): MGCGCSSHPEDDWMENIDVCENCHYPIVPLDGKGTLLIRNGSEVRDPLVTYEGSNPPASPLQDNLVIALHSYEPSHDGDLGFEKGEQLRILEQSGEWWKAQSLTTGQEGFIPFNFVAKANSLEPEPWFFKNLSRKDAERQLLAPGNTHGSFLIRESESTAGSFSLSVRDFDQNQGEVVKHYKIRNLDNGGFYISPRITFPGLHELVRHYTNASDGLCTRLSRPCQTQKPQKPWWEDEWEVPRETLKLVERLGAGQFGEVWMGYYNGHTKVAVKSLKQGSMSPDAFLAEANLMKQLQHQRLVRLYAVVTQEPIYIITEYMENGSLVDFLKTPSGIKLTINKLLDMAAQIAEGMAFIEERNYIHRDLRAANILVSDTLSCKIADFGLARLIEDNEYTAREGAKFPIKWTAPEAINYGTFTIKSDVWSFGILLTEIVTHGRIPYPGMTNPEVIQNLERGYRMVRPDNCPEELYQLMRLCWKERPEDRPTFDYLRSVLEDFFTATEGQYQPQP
Chain of Protein kinase C theta type (Q04759 whole entry): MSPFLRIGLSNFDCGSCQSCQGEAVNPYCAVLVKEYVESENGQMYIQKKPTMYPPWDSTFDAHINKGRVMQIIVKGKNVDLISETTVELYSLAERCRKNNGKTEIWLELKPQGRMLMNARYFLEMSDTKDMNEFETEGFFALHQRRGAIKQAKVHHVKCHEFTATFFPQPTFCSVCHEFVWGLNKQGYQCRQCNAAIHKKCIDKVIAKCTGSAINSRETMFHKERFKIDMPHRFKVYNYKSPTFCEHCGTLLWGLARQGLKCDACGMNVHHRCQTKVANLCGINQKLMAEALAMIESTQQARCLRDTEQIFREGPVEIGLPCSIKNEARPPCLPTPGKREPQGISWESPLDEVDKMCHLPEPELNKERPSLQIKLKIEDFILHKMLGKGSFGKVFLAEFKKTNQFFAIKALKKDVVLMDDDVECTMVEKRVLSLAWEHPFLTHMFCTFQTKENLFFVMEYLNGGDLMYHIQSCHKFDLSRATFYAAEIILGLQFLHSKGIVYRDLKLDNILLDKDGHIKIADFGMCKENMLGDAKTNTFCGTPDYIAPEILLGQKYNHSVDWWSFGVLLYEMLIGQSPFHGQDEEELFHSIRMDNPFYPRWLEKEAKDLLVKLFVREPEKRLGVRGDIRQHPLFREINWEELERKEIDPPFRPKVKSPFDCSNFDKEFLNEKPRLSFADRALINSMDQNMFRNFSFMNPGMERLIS
Chain of LIM domain kinase 1 (P53667 whole entry, the tested form may be a part): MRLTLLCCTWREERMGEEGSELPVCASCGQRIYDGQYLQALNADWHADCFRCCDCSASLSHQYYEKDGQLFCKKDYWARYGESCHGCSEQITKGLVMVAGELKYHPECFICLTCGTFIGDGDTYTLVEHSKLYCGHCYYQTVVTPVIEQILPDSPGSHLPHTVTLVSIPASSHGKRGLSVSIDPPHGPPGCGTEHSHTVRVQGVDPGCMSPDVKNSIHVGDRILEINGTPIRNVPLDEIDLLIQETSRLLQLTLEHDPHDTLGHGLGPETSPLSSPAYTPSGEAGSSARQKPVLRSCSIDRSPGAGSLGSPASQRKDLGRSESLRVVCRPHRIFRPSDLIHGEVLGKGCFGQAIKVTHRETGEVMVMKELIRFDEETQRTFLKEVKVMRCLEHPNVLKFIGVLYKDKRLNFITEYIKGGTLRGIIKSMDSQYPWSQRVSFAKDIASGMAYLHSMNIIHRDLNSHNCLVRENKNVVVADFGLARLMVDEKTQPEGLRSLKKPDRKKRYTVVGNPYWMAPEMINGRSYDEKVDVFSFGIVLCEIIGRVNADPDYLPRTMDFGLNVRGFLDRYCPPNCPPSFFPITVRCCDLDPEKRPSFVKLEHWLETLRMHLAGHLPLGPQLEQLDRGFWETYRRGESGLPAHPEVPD

Cc1cccc(-c2cccc3onc(N)c23)c1
Ki [1]: 10 µM (active) | Ki [2]: 5.01 µM (active) | Ki [3]: 79.4 µM (active) | Ki [4]: 25.1 µM (active) | Ki [5]: 39.8 µM (active) | Ki (LIM domain kinase 1): 20 µM (active) | Ki [6]: 100 µM (active) | Ki [7]: 100 µM (active) | Ki [8]: 100 µM (active) | Ki [9]: 5.01 µM (active) | Ki [10]: 5.01 µM (active) | Ki [11]: > 100 µM (inactive) | Ki [12]: 3.16 µM (active) | Ki [13]: 7.94 µM (active) | Ki [14]: 79.4 µM (active) | Ki (Activin receptor type-1): 3.16 µM (active) | Ki [15]: 3.16 µM (active) | Ki [16]: 39.8 µM (active) | Ki [17]: 50.1 µM (active) | Ki [18]: 63.1 µM (active) | Ki (Aurora kinase B): 6.31 µM (active) | Ki [19]: 15.8 µM (active) | Ki [20]: 39.8 µM (active) | Ki [21]: 15.8 µM (active) | Ki (Aurora kinase A): > 63.1 µM (inactive) | Ki [22]: 12.6 µM (active) | Ki [23]: 39.8 µM (active) | Ki [24]: 10 µM (active) | Ki [25]: 10 µM (active) | Ki [26]: 2 µM (active) | Ki [27]: 10 µM (active) | Ki [28]: 50.1 µM (active) | Ki [29]: 31.6 µM (active) | Ki [30]: 25.1 µM (active) | Ki [31]: 15.8 µM (active) | Ki [32]: 31.6 µM (active)
